From US20210244028A1, “TREATMENT FOR REMOVING ECTOPARASITES FROM FISH” (priority 2018, published 2021)
“And” between values parts separate entries of the source, which are not always exact repeats. Identical values can stand only once. Like-named read-outs stand apart in the source and are kept apart here.

What was measured:
Lepeophtheirus salmonis [1] = settings: for percentage responsiveness of lice recovered from tank at treatment end at 24 hours post-treatment: lice knocked off fish
Experimental: (§1) Lice were monitored continuously for the duration of the exposure and behavioural observations noted, including detachment of lice from fish. At the end of exposure lice were either removed from the tank or fish, placed into small vented plastic screw-top containers (125 mL, LDPE, 25 mm hole drilled into lid and secured with 200 μm mesh), and transferred to a clean tank supplied with filtered sea water and held there for 24 h. Lice which had detached from fish were kept separate from those that had not detached.
24 h post-treatment lice were removed from the screw-top containers to check if they were alive and, if so, if they were responsive. Categories were defined as follows: alive—movement detected; responsive—alive and actively avoids stimulation in a coordinated manner; dead—no movement detected.
Lice defined as responsive could potentially re-attach to a fish. After assessment lice were transferred to 70% alcohol in case determination of instar and sex was required.

Lepeophtheirus salmonis [2] = settings: for percentage of sea lice that dropped from treated fish at the end of the treatment period / knockdown times (mean±SEM) / percentage of lice for which their knockdown time equalled that of the exposure time: 20 ppm (nitenpyram 19 ppm); for percentage of sea lice that dropped from treated fish at the end of the treatment period: culled fish; for knockdown times (mean±SEM) / percentage of lice for which their knockdown time equalled that of the exposure time: * only one louse knocked down
Experimental: The fish were acclimatised until normal feeding behaviour resumed, up to a maximum of 10 days, prior to challenge. The fish were housed in 750 litre tanks at a stocking density of no greater than 35 kg/m3. Tanks were provided with a continuous supply of seawater at a flow rate greater than 5 L/min at a temperature of 4.8-10.4° C. The photoperiod was set at 12 hours light: 12 hours dark.
The fish were challenged in a static bath with copepodid instar of Lepeophtheirus salmonis with the appearance of egg strings freshly removed from adult female lice at a target titre of 1,250-1,700 copepodids per tank
Egg strings were harvested from gravid sea lice and incubated in upwelling chambers until nauplii eclosion. Nauplii were allowed to moult through to the copepodid instar (5 days at approx. 10° C.) and then the tank water was filtered through a 100 μm mesh before re-suspending the copepodids in 225 mL of sea water. A 25 mL sample was removed which was then split into 1-2 mL samples in a 24-well plate and the nauplii/copepodids were counted under a stereo microscope. When abundance was sufficient and a minimum of 80% were copepodids the fish were challenged for 8 hours under static flow in the dark.
Fish were randomly selected from tanks, lightly sedated in a 90 ppm MS222 solution sufficient only to induce loss of equilibrium before being sacrificed by a non-recoverable blow to the head. Between 4 and 33 fish were required per treatment.
Culled fish were then suspended in treatment tanks. Fish were suspended in the tank horizontally from cable ties (one through the opercular cavity, one around the peduncle) and wire attached to a wooden rod). One 20 L tank of test item at 20 ppm was used per day. Lice on culled fish were exposed for either 5, 10, 15, 30 or 60 minutes (negative control was only exposed for 60 minutes as this would cover the longest exposure period to be tested). The order within treatment was randomised.
as §1
On the day of exposure, 200 mg of the test ectoparasite treatments was added to 1 L of sea water. Only 192 mg of nitenpyram was supplied. The solution was mechanically stirred for 30 minutes, using a stirring plate and magnetic flea (VWR), at a speed sufficient to generate a strong vortex to ensure a homogenous solution. This was then transferred into an approx. 25 L clear plastic tank containing 9 L of sea water. The solution was then mixed for a further 10 minutes using a small pump (Fluval Sea CP1), which was then removed from the tank prior to addition of fish.
Each treatment requiring 1 to 4 fish per individual treatment per replicate and 2 to 13 fish per group per replicate. Treatments with negative control (sea water), dinotefuran, clothianidin and thiamethoxam were replicated twice, and for imidacloprid three times. There was only one replicate per treatment for nitenpyram. The mean number of lice used per individual treatment was 5.5 to 10, with the mean per group being 6.2-7.2 lice.

[3] = exposure 5 min, 20 ppm (nitenpyram 19 ppm), 24 h post-treatment
[4] = exposure 10 min, 20 ppm (nitenpyram 19 ppm), 24 h post-treatment
[5] = exposure 15 min, 20 ppm (nitenpyram 19 ppm), 24 h post-treatment
[6] = exposure 30 min, 20 ppm (nitenpyram 19 ppm), 24 h post-treatment
[7] = exposure 60 min, 20 ppm (nitenpyram 19 ppm), 24 h post-treatment
[8] = exposure 15 min, 20 ppm (nitenpyram 19 ppm)
[9] = exposure 30 min, 20 ppm (nitenpyram 19 ppm)
[10] = exposure 60 min, 20 ppm (nitenpyram 19 ppm)

Row | SMILES | percentage responsiveness for sea lice recovered from fish at the end of the treatment period (Lepeophtheirus salmonis [1]; [3]) [%] | percentage responsiveness for sea lice recovered from fish at the end of the treatment period (Lepeophtheirus salmonis [1]; [4]) [%] | percentage responsiveness for sea lice recovered from fish at the end of the treatment period (Lepeophtheirus salmonis [1]; [5]) [%] | percentage responsiveness for sea lice recovered from fish at the end of the treatment period (Lepeophtheirus salmonis [1]; [6]) [%] | percentage responsiveness for sea lice recovered from fish at the end of the treatment period (Lepeophtheirus salmonis [1]; [7]) [%] | percentage of sea lice that dropped from treated fish at the end of the treatment period (Lepeophtheirus salmonis [2]; exposure 5 min) [%] | percentage of sea lice that dropped from treated fish at the end of the treatment period (Lepeophtheirus salmonis [2]; exposure 10 min) [%] | percentage of sea lice that dropped from treated fish at the end of the treatment period (Lepeophtheirus salmonis [2]; exposure 15 min) [%] | percentage of sea lice that dropped from treated fish at the end of the treatment period (Lepeophtheirus salmonis [2]; exposure 30 min) [%] | percentage of sea lice that dropped from treated fish at the end of the treatment period (Lepeophtheirus salmonis [2]; exposure 60 min) [%] | percentage responsiveness of lice recovered from tank at treatment end at 24 hours post-treatment (Lepeophtheirus salmonis [1]; [8]) [%] | percentage responsiveness of lice recovered from tank at treatment end at 24 hours post-treatment (Lepeophtheirus salmonis [1]; [9]) [%] | percentage responsiveness of lice recovered from tank at treatment end at 24 hours post-treatment (Lepeophtheirus salmonis [1]; [10]) [%] | knockdown times (mean±SEM) (Lepeophtheirus salmonis [2]; exposure 15 min) | percentage of lice for which their knockdown time equalled that of the exposure time (Lepeophtheirus salmonis [2]; exposure 15 min) | knockdown times (mean±SEM) (Lepeophtheirus salmonis [2]; exposure 30 min) | percentage of lice for which their knockdown time equalled that of the exposure time (Lepeophtheirus salmonis [2]; exposure 30 min) | knockdown times (mean±SEM) (Lepeophtheirus salmonis [2]; exposure 60 min) | percentage of lice for which their knockdown time equalled that of the exposure time (Lepeophtheirus salmonis [2]; exposure 60 min) | also measured
1 | CN1COCN(Cc2cnc(Cl)s2)/C1=N\[N+](=O)[O-] [thiamethoxam] | 100 | 100 | 100 | 100 | 92 | 0 | 0 | 0 | 0 | 0 | – | – | – | – | – | – | – | – | – | Knockdown effect (Lepeophtheirus salmonis [2]; 20 ppm, exposure 5 to 60 minutes): No knockdown
2 | CN/C(=N/CC1CCOC1)N[N+](=O)[O-] (centres unmarked) [dinotefuran] | – | – | – | – | – | 0 | 0 | 0 | 7.7 | 53.3 | 100 | 0 | 71 | 900* seconds | 100* % | 1800* seconds | 100* % | 3109 ± 224 s | 25% | percentage responsiveness for sea lice recovered from fish at the end of the treatment period (Lepeophtheirus salmonis [1]): 88% and 73% and 100% and 69% and 83%
3 | CN/C(=N\[N+](=O)[O-])NCc1cnc(Cl)s1 [clothianidin] | 100 | 93 | 90 | 75 | 100 | 0 | 0 | 9.1 | 69.2 | 54.5 | 0 | 44 | 33 | 900* seconds | 100* % | 1706 ± 71 s | 77.8% | 2289 ± 424 s | 33.3% | –
4 | CCN(Cc1ccc(Cl)nc1)/C(=C/[N+](=O)[O-])NC [nitenpyram] | 100 | 100 | 100 | 100 | 100 | 0 | 0 | 16.7 | 0 | 14.3 | 0 | – | 0 | 900* seconds | 100* % | – | – | 3600* seconds | 100* % | Responsiveness of lice still on fish at end of exposure (Lepeophtheirus salmonis [1]; all exposure durations (5-60 min), 19 ppm): unaffected at all exposure durations
